Measurements taken from patent US8575168B2, “Compounds and compositions as modulators of GPR119 activity” (IRM LLC, priority 2009, dated 2013).

These compounds were tested against T1, human GPR119 (Homo sapiens, UniProt Q8TDV5) (assay: Cyclic AMP Assay in Stable Cell Line (HTRF)). Conditions: Flp-In-CHO-hGPR119 cells, intracellular cAMP, 30 minutes at 37° C., 1 mM IBMX.
T1 construct: expressed in transfected cells
T1 sequence (Q8TDV5 1-335): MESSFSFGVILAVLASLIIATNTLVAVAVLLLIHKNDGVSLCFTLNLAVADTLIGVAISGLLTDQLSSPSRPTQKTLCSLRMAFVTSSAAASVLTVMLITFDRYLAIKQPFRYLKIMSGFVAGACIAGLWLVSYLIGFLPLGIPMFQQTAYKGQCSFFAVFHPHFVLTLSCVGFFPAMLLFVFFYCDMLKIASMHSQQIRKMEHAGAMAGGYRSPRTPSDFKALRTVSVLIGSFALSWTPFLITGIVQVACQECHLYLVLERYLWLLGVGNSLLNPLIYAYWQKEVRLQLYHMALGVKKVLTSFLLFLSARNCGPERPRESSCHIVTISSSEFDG
Type: cell-based
Experimental: Flp-In-CHO cells (Invitrogen, Cat. #R758-07) are maintained in Ham's F12 medium supplemented with 10% fetal bovine serum, 1% antibiotic mixture and 2 mM L-glutamine. The cells are transfected with a DNA mixture containing human GPR119 in pcDNA5/FRT vector and the pOG44 vector (1:9) using Fugene6 (Roche), according to the manufacturer's instruction. After 48 hours, the medium is changed to medium supplemented with 400 μg/ml hygromycin B to initiate the selection of stably transfected cells.
To test the activity of compounds of the invention, Flp-In-CHO-hGPR119 cells are harvested and resuspended in DMEM plus 3% lipid-depleted fetal bovine serum. Forth μl of cells are plated in 384 well plates at a density of 15,000 cells/well. IBMX (3-isobutyl-1-methyl-xanthine) is added to the cells to a final concentration of 1 mM, followed by the addition of 500 nl of the compound to be tested. The cells are incubated at 37° C. for 30 minutes. Equal volume (20 μl) of the HTRF reagents, anti-cAMP-Cryptate and cAMP-XL665, are added to the cells. The plates are incubated at room temperature for 1 hour and read on a HTRF reader according to the manufacturer's instruction.

| SMILES | EC50 [nM] |
| --- | --- |
| CC(C)c1ccc(CN2CC(Oc3ccc(N4CCN(C(=O)OCc5ccccc5)CC4=O)nc3)C2)cc1 [Example A2, Benzyl 4-(5-(1-(4-isopropylbenzyl)azetidin-3-yloxy)pyridin-2-yl)-3-oxopiperazine-1-carboxylate] | 979 |
| CC(C)c1ccc(CN2CC(Oc3cnc(N4CCN(C(=O)OCc5ccccc5)CC4)cn3)C2)cc1 [Example A10] | 666 |
| COc1ccc(CN2CC(Oc3ccc(N4CCN(S(C)(=O)=O)CC4)nc3)C2)cc1 [Example A12] | 341 |
| Cc1ccc(CN2CC(Oc3ccc(N4CCN(S(C)(=O)=O)CC4)nc3)C2)cc1 [Example A14] | 238 |
| CS(=O)(=O)N1CCN(c2ccc(OC3CN(Cc4cccc(C(F)(F)F)c4)C3)cn2)CC1 [Example A16] | 884 |
| CC(Cc1ccc(C(F)(F)F)cc1)N1CC(Oc2c(F)cc(C3CCN(S(C)(=O)=O)CC3)cc2F)C1 (stereo not shown) [Example A24] | 177 |
| CCC(c1ccc(C(F)(F)F)cc1)N1CC(Oc2c(F)cc(C3CCN(S(C)(=O)=O)CC3)cc2F)C1 (stereo not shown) [Example A25] | 246 |
| CS(=O)(=O)N1CCC(c2cc(F)c(OC3CN(Cc4ncc(C(F)(F)F)cc4Cl)C3)c(F)c2)CC1 [Example A26] | 330 |
| CS(=O)(=O)N1CCC(c2cc(F)c(OC3CN(Cc4ncc(C(F)(F)F)cn4)C3)c(F)c2)CC1 [Example A27] | 764 |
| CS(=O)(=O)N1CCC(c2cc(F)c(OC3CN(C(CO)c4ccc(C(F)(F)F)cc4)C3)c(F)c2)CC1 (stereo not shown) [Example A29] | 1090 |
| CS(=O)(=O)N1CCC(c2cc(F)c(OC3CN(Cc4cccc5ccccc45)C3)c(F)c2)CC1 [Example A31] | 652 |
| CS(=O)(=O)N1CCN(c2cc(F)c(OC3CN(Cc4ccc(C(F)(F)F)cc4)C3)c(F)c2)CC1 [Example A32] | 145 |
| CS(=O)(=O)N1CCN(c2cc(F)c(OC3CN(Cc4ccc(C(F)(F)F)cc4)C3)c(F)c2)C(=O)C1 [Example A33] | 331 |
| O=C(N1CC=C(c2cc(F)c(OC3CN(Cc4ccc(C(F)(F)F)cc4)C3)c(F)c2)CC1)C(F)(F)F [Example A35] | 688 |
| CC(C)(C)OC(=O)N1CCC(S(=O)(=O)N2CCC(c3cc(F)c(OC4CN(Cc5ccc(C(F)(F)F)cc5)C4)c(F)c3)CC2)CC1 [Example A37] | 325 |
| O=S(=O)(C1CCNCC1)N1CCC(c2cc(F)c(OC3CN(Cc4ccc(C(F)(F)F)cc4)C3)c(F)c2)CC1 [Example A38] | 458 |
| CC(C)(C)OC(=O)N1CCC(S(=O)(=O)N2CCC(c3cc(F)c(OC4CN(Cc5ccc(C(F)(F)F)cc5)C4)c(F)c3)CC2)C1 (stereo not shown) [Example A39] | 214 |
| O=S(=O)(C1CCNC1)N1CCC(c2cc(F)c(OC3CN(Cc4ccc(C(F)(F)F)cc4)C3)c(F)c2)CC1 (stereo not shown) [Example A40] | 576 |
| CS(=O)(=O)N1CCN(c2ncc(OC3CN(Cc4ccc(C(F)(F)F)cc4)C3)cn2)CC1 [Example A42] | 149 |
| CS(=O)(=O)N1CCN(c2cnc(OC3CCN(Cc4nc(C(F)(F)F)no4)CC3)cn2)CC1 [Example B4, 5-((4-(5-(4-(Methylsulfonyl)piperazin-1-yl)pyrazin-2-yloxy)piperidin-1-yl)methyl)-3-(trifluoromethyl)-1,2,4-oxadiazole] | 757 |
| CC(C)(C)c1noc(CN2CC(Oc3c(F)cc(C4CCN(S(C)(=O)=O)CC4)cc3F)C2)n1 [Example B8] | 286 |

These reach a lower EC50. Values come first.

| EC50 [nM] | SMILES |
| --- | --- |
| 135 | CS(=O)(=O)N1CCC(c2cc(F)c(OC3CN(Cc4ccc5ccccc5c4)C3)c(F)c2)CC1 [Example A30] |
| 134 | CS(=O)(=O)N1CCN(c2ccc(OC3CN(Cc4ccc(Cl)cc4)C3)cn2)CC1 [Example A15] |
| 118 | CC(C)c1ccc(CN2CC(Oc3ccc(N4CCN(S(C)(=O)=O)CC4)nc3)C2)cc1 [Example A1, 1-(5-(1-(4-isopropylbenzyl)azetidin-3-yloxy)pyridin-2-yl)-4-(methylsulfonyl)piperazine] |
| 116 | CC(C)c1ccc(CN2CC(Oc3ccc(N4CCN(S(C)(=O)=O)CC4)cc3)C2)cc1 [Example A22] |
| 115 | CS(=O)(=O)N1CCN(c2ccc(OC3CN(Cc4ccc(C(F)(F)F)cc4)C3)c(F)c2)CC1 [Example A43] |
| 76 | CC(C)c1noc(CN2CC(Oc3c(F)cc(C4CCN(S(C)(=O)=O)CC4)cc3F)C2)n1 [Example B9] |
| 70 | CS(=O)(=O)N1CCN(c2ccc(OC3CN(Cc4ccc(OC(F)(F)F)cc4)C3)cn2)CC1 [Example A8] |
| 69 | CS(=O)(=O)N1CCN(c2cnc(OC3CN(Cc4ccc(C(F)(F)F)cc4)C3)cn2)CC1 [Example A6, 2-(4-(methylsulfonyl)piperazin-1-yl)-5-(1-(4-(trifluoromethyl)benzyl)azetidin-3-yloxy)pyrazine] |
| 49 | CS(=O)(=O)N1CCC(c2cc(F)c(OC3CN(Cc4ccc(C5(F)COC5)cc4)C3)c(F)c2)CC1 [Example A28] |
| 49 | CS(=O)(=O)N1CCC(c2cc(F)c(OC3CCN(Cc4nc(C(F)F)no4)CC3)c(F)c2)CC1 [Example B5] |
| 48 | CS(=O)(=O)N1CCC(c2cc(F)c(OC3CCN(Cc4cccc(C(F)(F)F)c4)CC3)c(F)c2)CC1 [Example A45] |
| 39 | CCCS(=O)(=O)N1CCN(c2ccc(OC3CN(Cc4ccc(C(F)(F)F)cc4)C3)cn2)CC1 [Example A21] |
| 38 | CS(=O)(=O)N1CCN(c2ccc(OC3CN(Cc4ccc(C(F)(F)F)cc4)C3)cn2)CC1 [Example A9] |
| 38 | CS(=O)(=O)N1CCC(c2cc(F)c(OC3CCN(Cc4ccc(C(F)(F)F)nc4)CC3)c(F)c2)CC1 [Example A44] |
| 37 | CS(=O)(=O)N1CCC(c2ccc(OC3CCN(Cc4nc(C(F)(F)F)no4)CC3)c(F)c2)CC1 [Example B6] |
| 36 | O=S(=O)(CCCO)N1CCC(c2cc(F)c(OC3CN(Cc4ccc(C(F)(F)F)cc4)C3)c(F)c2)CC1 [Example A41] |

| EC50 [nM] | SMILES |
| --- | --- |
| 28 | O=S(=O)(C1CCOCC1)N1CCC(c2cc(F)c(OC3CN(Cc4ccc(C(F)(F)F)cc4)C3)c(F)c2)CC1 [Example A36] |
| 28 | CC(C)(F)c1noc(CN2CCC(Oc3c(F)cc(C4CCN(S(C)(=O)=O)CC4)cc3F)CC2)n1 [Example B2, 5-((4-(2,6-difluoro-4-(1-(methylsulfonyl)piperidin-4-yl)phenoxy)piperidin-1-yl)methyl)-3-(2-fluoropropan-2-yl)-1,2,4-oxadiazole] |
| 26 | CS(=O)(=O)N1CCN(c2ccc(OC3CN(Cc4ccc(C(F)(F)F)cc4)C3)cn2)C(=O)C1 [Example A17] |
| 22 | CC(C)c1ccc(CN2CC(Oc3cnc(N4CCN(S(C)(=O)=O)CC4)cn3)C2)cc1 [Example A11] |
| 20 | CS(=O)(=O)N1CCN(c2cnc(OC3CN(Cc4ccc(C(F)(F)F)cc4)C3)cn2)C(=O)C1 [Example A3] |
| 16 | CC(F)(F)c1noc(CN2CCC(Oc3c(F)cc(C4CCN(S(C)(=O)=O)CC4)cc3F)CC2)n1 [Example B3, 5-((4-(2,6-difluoro-4-(1-(methylsulfonyl)piperidin-4-yl)phenoxy)piperidin-1-yl)methyl)-3-(1,1-difluoroethyl)-1,2,4-oxadiazole] |
| 16 | CS(=O)(=O)N1CCC(c2ccc(OC3CCN(Cc4nc(C(F)(F)F)no4)CC3)cc2F)CC1 [Example B7] |
| 13 | CS(=O)(=O)N1CCC(c2cc(F)c(OC3CN(Cc4ccc(C(F)(F)F)cc4)C3)c(F)c2)CC1 [Example A7, 4-(3,5-difluoro-4-(1-(4-(trifluoromethyl)benzyl)azetidin-3-yloxy)phenyl)-1-(methylsulfonyl)piperidineine] |
| 12 | CS(=O)(=O)N1CCN(c2cnc(OC3CN(Cc4ccc(OC(F)(F)F)cc4)C3)cn2)C(=O)C1 [Example A4, 4-(methylsulfonyl)-1-(5-(1-(4-(trifluoromethoxy)benzyl)azetidin-3-yloxy)pyrazin-2-yl)piperazin-2-one] |
| 12 | CC(C)c1ccc(CN2CC(Oc3cnc(N4CCN(S(C)(=O)=O)CC4=O)cn3)C2)cc1 [Example A19] |
| 12 | CS(=O)(=O)N1CC=C(c2cc(F)c(OC3CN(Cc4ccc(C(F)(F)F)cc4)C3)c(F)c2)CC1 [Example A34] |
| 11 | CC(C)c1ccc(CN2CC(Oc3ccc(N4CCN(S(C)(=O)=O)CC4=O)nc3)C2)cc1 [Example A18] |
| 9 | CS(=O)(=O)N1CCC(c2cc(F)c(OC3CCN(Cc4ccc(C(F)(F)F)cc4)CC3)c(F)c2)CC1 [Example A5] |
| 9 | CCCS(=O)(=O)N1CCN(c2ccc(OC3CN(Cc4ccc(C(F)(F)F)cc4)C3)cn2)C(=O)C1 [Example A20] |
| 7 | CS(=O)(=O)N1CCC(c2cc(F)c(OC3CCN(Cc4nc(C(F)(F)F)no4)CC3)c(F)c2)CC1 [Example B1, 5-((4-(2,6-Difluoro-4-(1-(methylsulfonyl)piperidin-4-yl)phenoxy)piperidin-1-yl)methyl)-3-(trifluoromethyl)-1,2,4-oxadiazole] |
